Literature values, collected in patent publication US20190382321A1, “ACID-RESISTANT UREASE INHIBITOR ADDUCT-[…] COMPOSITIONS” (Koch Agronomic Services, LLC, priority 2017, published 2019).

Settings: blend of NBPT-containing urea and one or more acidic fertilizers

CCCCNP(N)(N)=S [NBPT, N-(n-butyl) thiophosphoric triamide]
time to almost complete decomposition after blending: 1-2 weeks
